For assay [1], the system named is Hemogenic endothelial cells (HECs) derived from iPS cells. The assay can be described thus: Importance of SR1 and IL-3 in production of T cell progenitor (Example 3). It is filed as cell-based, human. The note with it: 12 days culture. On the procedure:
Hemogenic endothelial cells (HECs) derived from iPS cells prepared in the same manner as in Example 1 were sorted by BD FACSAria® Fusion and re-suspended in a StemSpan SFEM II medium, followed by seeding the cells into a culture vessel (6-well plate) coated with RN and DLL4-Fc (225,000/6 wells). […] Halfway through the culture, on day 4 after the start of culture, 500 μl of the medium described above was added. On day 7 after the start of culture, a half amount of the medium was replaced. On day 12 after the start of culture, cells were collected with pipetting, and the cell number was measured. The cells were stained with the antibodies shown in Table 2 and measured with BD FACSAria™ Fusion.

The test system of a further assay is CD34^+ cells. As to conditions: NPL 5 (Boitano et al.); cited from earlier work.
For assay [2], the system named is Hemogenic endothelial cells (HECs) induced from iPS cells. The assay can be described thus: Differentiation culture of iPS-derived hemogenic endothelial cells into CD34+/CD7+ T cell progenitors (Example 1). The assay is classed as cell-based, human. On the procedure: The cell population containing hemogenic endothelial cells (HECs) for use was a floating cell population obtained by differentiating iPS cells (Ff-I01s04: derived from peripheral blood mononuclear cells of a healthy individual) provided from the Center for iPS Cell Research and Application, Kyoto University, according to known methods (e.g., the methods disclosed in Cell Reports 2 (2012) 1722-1735, or WO2017/221975). Specifically, Ff-I01s04 was seeded at 1×10^6 cells/well in an ultra-low-attachment 6-well plate (Day 0). The cells were cultured under hypoxic conditions (5% 02) for 4 days in EB medium (StemPro-34 supplemented with 10 μg/ml human insulin, 5.5 μg/ml human transferrin, 5 ng/ml sodium selenite, 2 mM L-glutamine, […] α-monothioglycerol, and 50 μg/ml ascorbic acid 2-phosphate) supplemented with 50 ng/ml BMP4, 50 ng/ml bFGF, 50 ng/ml VEGF, and 2 μM SB431542 (Day 4). Subsequently, culture was further performed in a medium supplemented with 50 ng/ml bFGF, 50 ng/ml VEGF, and 50 ng/ml SCF for 4 days (Day 8), thereby obtaining a cell population containing HECs. The floating cell population containing HECs were stained with the following antibody set. […] On day 11 after the start of culture, cells were collected with pipetting, and the cell number was measured. […]

These results are taken from US20230159891A1, “T CELL PROGENITOR PRODUCTION METHOD” (Kyoto University, priority 2020, published 2023).

For the compound `CC(C)n1cnc2c(NCCc3ccc(O)cc3)nc(-c3csc4ccccc34)nc21` [SR1, 4-(2-((2-(benzo[b]thiophen-3-yl)-9-isopropyl-9H-purin-6-yl)amino)ethyl)phenol], the “expression level of CD34” value in assay [1] (flow cytometry, control vs -SR1 condition, FIG. 4) is reported as “plays an important role in maintaining the expression level of CD34”. Besides, in assay [1] (control: 1 nM SR1, 10 ng/ml IL-3 plus SCF, Flt3L, TPO, IL-7, IL-6, FIG. 3), the “cell proliferation (cell number) when the factor is excluded from the additives” value is “reduced”. Also, the “expansion of CD34+ cells” value with CD34^+ cells is listed as “promoted expansion”. Moreover, in assay [2] (10 days of culture, 1 nM SR1 with SCF, Flt3L, TPO, IL-7, IL-6, IL-3 in StemSpan SFEM II on RetroNectin/DLL4-Fc coated plate), the cell growth entry was “about 150 fold”. Moreover, the “proportion of cells that were proT (CD34+/CD7+) cells” value in assay [2] (same culture as E1, flow cytometry after culture) was “about 25%”.
